Patent publication US20240132522A1, “HETEROCYCLIC COMPOUNDS AND METHODS OF USE THEREOF” (1cBio, Inc., priority 2022, published 2024)
Counter-ions that a name gives are not always drawn.

biological target: recombinant human PARP1 (Homo sapiens, UniProt P09874); test: PARP1 fluorescence polarization binding assay; conditions: binding IC50, GST-tagged PARP1 20 nM, PARPi-FL probe 3 nM, 4 h at RT
Description: In some embodiments, the biological assay is described in the Examples herein. In some embodiments, the biological assay measures PARP-1 binding by way of fluorescence polarization measurements. In some embodiments, binding of a test compound to recombinant human PARP-1 reduces the amount of binding of a fluorescent probe, and consequently reduces the detected level of fluorescence polarization. In some test compound stock solutions are prepared in a solvent, e.g., DMSO, and are serially diluted into a range of concentrations, e.g., 15 concentrations, 14 concentrations, 13 concentrations, 12 concentrations, 11 concentrations, 10 concentrations, 9 concentrations, 8 concentrations, 7 concentrations, 6 concentrations, or 5 concentrations, by a dilution factor, e.g., a 10-fold dilution factor, a 9-fold dilution factor, an 8-fold dilution factor, a 7-fold dilution factor, a 6-fold dilution factor, a 5-fold dilution factor, a 4-fold dilution factor, a 3-fold dilution factor, or a 2-fold dilution factor. In some embodiments, the serial dilutions, e.g., 100 nL of serial dilution, 90 nL of serial dilution, 80 nL of serial dilution, 70 nL of serial dilution, 60 nL of serial dilution, 50 nL of serial dilution, 30 nL of serial dilution, 20 nL of serial dilution, or 10 nL of serial dilution, are added to a multi-welled plate, e.g., a 1536-well plate, a 384-well plate, or a 96-well plate. In some embodiments, PARP-1, e.g., GST-tagged PARP-1, is diluted in assay buffer, e.g., 50 μL of assay buffer, 40 μL of assay buffer, e.g., 30 μL of assay buffer, 20 μL of assay buffer, 10 μL of assay buffer, or 5 μL of assay buffer, and is added to the plate. In some embodiments, the plate is centrifuged, e.g., at 1000 rpm for 1 min, and incubated, e.g., incubated for 30 minutes at room temperature (RT). In some embodiments, a fluorescent probe, e.g., 10 μL of 6 nM PARPi-FL (TOCRIS, Cat #6461), is diluted in an assay buffer and is added to the plate. In some embodiments, the final concentrations of PARP-1 and fluorescent probe are 20 nM and 3 nM, respectively, in a total volume of 20 μL. In some embodiments, the plate is centrifuged, e.g., at 1000 rpm for 1 minute, and the assay plate is incubated, e.g., for 4 h at RT. In some embodiments, the samples in each well are read using a plate reader, e.g., an Envision instrument using excitation=480 nm, and emission wavelength=FITC FP-P pol 535 nm & FITC FP-S pol 535 nm). In some embodiments, percent inhibition is calculated from mP values using Inhibition (%)=[1−(mPc−mPL)/(mPH−mPL)]×100%, where mPc, mPL, and mPH are the mP values of test compound, Low controls, and High controls, respectively. In some embodiments, binding IC50 values are calculated using XLFit (equation 201: y=A+((B−A)/(1+((x/C)^D))), where A=bottom, B=top, C=IC50, and D=slope) with a floating top and bottom for curves.
Compounds of the present disclosure were tested in a PARP1 fluorescence polarization binding assay at Pharmaron (Beijing, P.R. China). In this biochemical assay, binding of test compound to recombinant human PARP1 reduces the amount of binding of a fluorescent probe, and consequently reduces the detected level of fluorescence polarization. Test compound stock solutions were prepared in DMSO and then serially diluted into 10 concentrations by 3-fold dilution in a 384-well plate using a TECAN EVO200. 60 nL of each dilution was transferred to the plate using an Echo550 (Labcyte), and then 10 μL 40 nM GST-tagged PARP1 (BPS Bioscience, Cat #80501), diluted in assay buffer (50 mM Tris pH 8.0, 0.001% Triton X-100, 10 mM MgCl2, 150 mM NaCl), was added to the plate. After a centrifugation at 1000 rpm for 1 min, the assay plate was incubated for 30 min at RT. 10 μL 6 nM PARPi-FL (TOCRIS, Cat #6461), diluted using assay buffer, was then added to the plate. The final concentrations of PARP1 and PARPi-FL were 20 nM and 3 nM, respectively, in a total volume of 20 μL. […]

Sequence of recombinant human PARP1 (P09874 whole entry): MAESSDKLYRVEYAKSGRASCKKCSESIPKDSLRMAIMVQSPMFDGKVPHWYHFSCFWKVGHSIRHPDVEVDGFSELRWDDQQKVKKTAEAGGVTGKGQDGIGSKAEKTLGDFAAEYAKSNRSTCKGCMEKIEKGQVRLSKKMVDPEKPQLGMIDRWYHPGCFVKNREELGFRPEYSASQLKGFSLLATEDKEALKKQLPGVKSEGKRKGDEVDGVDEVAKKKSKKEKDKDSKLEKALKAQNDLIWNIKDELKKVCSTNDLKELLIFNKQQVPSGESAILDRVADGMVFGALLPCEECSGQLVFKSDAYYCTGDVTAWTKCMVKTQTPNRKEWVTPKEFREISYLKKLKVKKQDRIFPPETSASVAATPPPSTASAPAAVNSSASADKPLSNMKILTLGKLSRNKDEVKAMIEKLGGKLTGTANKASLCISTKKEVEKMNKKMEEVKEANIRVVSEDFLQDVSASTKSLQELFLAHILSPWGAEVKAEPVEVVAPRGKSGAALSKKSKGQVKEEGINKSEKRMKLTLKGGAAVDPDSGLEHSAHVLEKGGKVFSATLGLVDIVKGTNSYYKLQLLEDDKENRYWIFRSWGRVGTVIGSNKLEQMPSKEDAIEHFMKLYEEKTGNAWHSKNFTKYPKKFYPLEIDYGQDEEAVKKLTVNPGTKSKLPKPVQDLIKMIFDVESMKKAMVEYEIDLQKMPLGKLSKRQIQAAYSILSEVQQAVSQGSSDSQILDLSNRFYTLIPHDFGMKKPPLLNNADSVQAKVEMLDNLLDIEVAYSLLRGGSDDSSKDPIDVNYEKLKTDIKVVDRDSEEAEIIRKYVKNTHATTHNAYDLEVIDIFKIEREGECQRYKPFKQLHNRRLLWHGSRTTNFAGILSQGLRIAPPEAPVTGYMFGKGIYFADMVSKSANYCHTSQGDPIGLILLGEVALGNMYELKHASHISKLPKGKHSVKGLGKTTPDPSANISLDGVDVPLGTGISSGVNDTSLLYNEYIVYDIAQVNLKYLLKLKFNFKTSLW

IC50	SMILES
< 100 nM	CCc1cc2ncc(CN3CCCN(c4ccc(C(=O)NC)nc4)CC3)cc2[nH]c1=O [Compound No. 6, 5-(4-((7-ethyl-6-oxo-5H-1,5-naphthyridin-3-yl)methyl)-1,4-diazepan-1-yl)-N-methylpyridine-2-carboxamide]
< 100 nM	CCc1cc2ncc(CN3CC4(C3)CN(c3ccc(C(=O)NC)nc3)C4)cc2[nH]c1=O [Compound No. 9, 5-(6-((7-ethyl-6-oxo-5,6-dihydro-1,5-naphthyridin-3-yl)methyl)-2,6-diazaspiro[3.3]heptan-2-yl)-N-methylpicolinamide formate]
100 to 3000 nM	CCc1cc2ncc(CNC3CC(Nc4ccc(C(=O)NC)nc4)C3)cc2[nH]c1=O (stereo not shown) [Compound No. 29, 5-((3-(((7-ethyl-6-oxo-5,6-dihydro-1,5-naphthyridin-3-yl)methyl)amino)cyclobutyl)amino)-N-methylpicolinamide]

SMILES	IC50
CCc1cc2ncc(CN3CC4CN(c5ccc(C(=O)NC)nc5)CC4C3)cc2[nH]c1=O (stereo not shown) [Compound No. 7, 5-(5-((7-ethyl-6-oxo-5,6-dihydro-1,5-naphthyridin-3-yl)methyl)hexahydropyrrolo[3,4-c]pyrrol-2(1H)-yl)-N-methylpicolinamide]	100 to 3000 nM
